According to article PMC9007350, “Aurintricarboxylic acid is a canonical disruptor of the TAZ-TEAD transcriptional complex” (PLoS ONE, 2022):

How the values were obtained:
[1] = test system: TC/TEAD transcriptional profile in TC-expressing NIH3T3 cells; assay: Bulk RNA-Seq, differential gene expression and GSEA (TC ATA v. TC DMSO); assay type: cell-based, murine; conditions: TC ATA v. TC DMSO
Description: NIH3T3 and HEK293 cells were obtained from the American Type Tissue Collection (ATCC, Manassas, VA) and cultured in DMEM containing 10% fetal bovine serum and penicillin/streptomycin. A TEAD dual luciferase reporter assay was performed as previously described. Cells were treated with vehicle control or ATA (10 μM) for 48 h before measuring the luciferase activity or processing the samples for RNA extraction. Each experiment was repeated at least 2-3 times. NIH3T3 cells were used. The extracted RNA (RNeasy Mini, Qiagen) from treated cells was either used for qPCR measurements or sent for bulk RNA-Seq. Sequencing runs were performed on an Illumina HiSeq 4000 sequencer (Genewiz). Subsequent bioinformatics analysis was performed in the Galaxy Project platform. Paired end reads were aligned to the murine genome ([…]2 [27]. Raw count files were generated with featureCounts using a corresponding GTF reference. Differential gene expression analysis was performed with DESeq2 [29]. Transcripts were considered to be differentially expressed if the false discovery rate < 0.05 and Log2FC > 2. When performing differential gene expression for GSEA analysis, the Limma package was used (<5 CPM filtering) with t-scores used for rank statistics. GSEA plots and statistics were generated with FGSEA with custom gene sets. Raw sequencing reads and processed files have been deposited in the GEO repository (data will be uploaded upon manuscript acceptance). The Universal Probe Library probes (Roche) and the associated primer sequences for the qPCR targets are listed below: […]

[2] = test system: NIH3T3 expressing TAZ S89A; assay: Soft agar colony growth assay, TAZ S89A; assay type: cell-based
Description: Soft agar colony growth assay was performed as previously described. The colonies were counted using Image-Pro Plus 7.0 software (Media Cybernetics). ATA cytotoxicity was assessed using the CyQUANT LDH Cytotoxicity Assay Kit (ThermoFisher) and was performed as per the manufacturer’s protocol.

Q: How did the “Log2 Fold Change” value ([1]; gene Hmga1b) turn out when O=C(O)C1=CC(=C(c2ccc(O)c(C(=O)O)c2)c2ccc(O)c(C(=O)O)c2)C=CC1=O [ATA, aurintricarboxylic acid] was run?
A: Its value is -0.4737.

Q: What about the “Log2 Fold Change” value ([1]; gene Htra1) of the same compound?
A: Its value is -0.7041.

Q: And the “Log2 Fold Change” value ([1]; gene Id1)?
A: Its value is 1.021.

Q: And the “Log2 Fold Change” value ([1]; gene Id3)?
A: The value was 0.8267.

Q: What about the “Log2 Fold Change” value ([1]; gene Igfbp4) of the same compound?
A: The value was 0.6017.

Q: What about the “Log2 Fold Change” value ([1]; gene Il1r1) of the same compound?
A: Its value is 0.3663.

Q: And the “Log2 Fold Change” value ([1]; gene Il11ra1)?
A: Its value is 0.412.

Q: What about the “Log2 Fold Change” value ([1]; gene Il17rd) of the same compound?
A: The value was 0.6209.

Q: And the “Log2 Fold Change” value ([1]; gene Ipo7)?
A: Its value is -0.2967.

Q: And the “Log2 Fold Change” value ([1]; gene Lrig1)?
A: Its value is -0.4157.

Q: And the “Log2 Fold Change” value ([1]; gene Ltbp2)?
A: Its value is -0.4917.

Q: And the “Log2 Fold Change” value ([1]; gene Ly6a)?
A: Its value is 1.151.

Q: What about the “Log2 Fold Change” value ([1]; gene Mgst1) of the same compound?
A: Its value is 1.029.

Q: What about the “Log2 Fold Change” value ([1]; gene Mocs1) of the same compound?
A: Its value is 0.3748.

Q: And the “Log2 Fold Change” value ([1]; gene Mrgprf)?
A: The value was 0.6309.

Q: What about the “Log2 Fold Change” value ([1]; gene Mybpc1) of the same compound?
A: Its value is 0.8979.

Q: What about the “Log2 Fold Change” value ([1]; gene Myl3) of the same compound?
A: The value was 1.696.

Q: What about the “Log2 Fold Change” value ([1]; gene Myoz2) of the same compound?
A: Its value is 1.5589.

Q: And the “Log2 Fold Change” value ([1]; gene Naaa)?
A: Its value is 0.4836.

Q: What about the “Log2 Fold Change” value ([1]; gene Nefm) of the same compound?
A: The value was -1.532.

Q: What about the “Log2 Fold Change” value ([1]; gene Nes) of the same compound?
A: The value was -0.5782.

Q: And the “Log2 Fold Change” value ([1]; gene Nipal1)?
A: The value was -0.5524.

Q: What about the “Log2 Fold Change” value ([1]; gene Nqo1) of the same compound?
A: Its value is 0.5252.

Q: What about the “Log2 Fold Change” value ([1]; gene Nrcam) of the same compound?
A: Its value is -1.361.

Q: What about the “Log2 Fold Change” value ([1]; gene Nrn1) of the same compound?
A: Its value is 0.4579.

Q: What about the “Log2 Fold Change” value ([1]; gene Nrxn2) of the same compound?
A: The value was 0.7098.

Q: What about the “Log2 Fold Change” value ([1]; gene Odc1) of the same compound?
A: Its value is -0.4352.

Q: And the “Log2 Fold Change” value ([1]; gene Optn)?
A: Its value is 0.5559.

Q: And the “Log2 Fold Change” value ([1]; gene Osmr)?
A: The value was 0.5327.

Q: And the “Log2 Fold Change” value ([1]; gene Pcx)?
A: Its value is 0.5741.

Q: What about the “Log2 Fold Change” value ([1]; gene Pdgfrb) of the same compound?
A: The value was 0.5085.

Q: What about the “Log2 Fold Change” value ([1]; gene Pdgfrl) of the same compound?
A: The value was 0.4243.

Q: What about the “Log2 Fold Change” value ([1]; gene Podnl1) of the same compound?
A: The value was -0.4267.

Q: And the “Log2 Fold Change” value ([1]; gene Prrx2)?
A: The value was 0.8257.

Q: What about the “Log2 Fold Change” value ([1]; gene Pvr) of the same compound?
A: The value was -0.3787.

Q: And the “Log2 Fold Change” value ([1]; gene Rcan2)?
A: Its value is 0.6454.

Q: What about the “Log2 Fold Change” value ([1]; gene Rgs4) of the same compound?
A: The value was 0.757.

Q: And the “Log2 Fold Change” value ([1]; gene Rnf150)?
A: Its value is 0.5435.

Q: And the “Log2 Fold Change” value ([1]; gene Sema7a)?
A: Its value is -1.826.

Q: And the “Log2 Fold Change” value ([1]; gene Serpinb9)?
A: Its value is 0.5861.

Q: What about the “Log2 Fold Change” value ([1]; gene Serpine2) of the same compound?
A: Its value is 0.9636.

Q: What about the “Log2 Fold Change” value ([1]; gene Setbp1) of the same compound?
A: The value was 0.5242.

Q: And the “Log2 Fold Change” value ([1]; gene Slc45a3)?
A: The value was 0.6918.

Q: And the “Log2 Fold Change” value ([1]; gene Smoc2)?
A: The value was 0.9475.

Q: What about the “Log2 Fold Change” value ([1]; gene Ssbp2) of the same compound?
A: The value was 0.4963.

Q: What about the “Log2 Fold Change” value ([1]; gene Stard10) of the same compound?
A: Its value is 0.7192.

Q: What about the “Log2 Fold Change” value ([1]; gene Sulf2) of the same compound?
A: Its value is 0.5447.

Q: And the “Log2 Fold Change” value ([1]; gene Thbs3)?
A: Its value is 0.6372.

Q: And the “Log2 Fold Change” value ([1]; gene Tmem119)?
A: Its value is 0.9507.

Q: What about the “Log2 Fold Change” value ([1]; gene Tnnt1) of the same compound?
A: The value was 1.595.

Q: And the “Log2 Fold Change” value ([1]; gene Tnxb)?
A: Its value is 0.5484.

Q: And the “Log2 Fold Change” value ([1]; gene Tpm2)?
A: The value was 0.3178.

Q: And the “Log2 Fold Change” value ([1]; gene Trim30a)?
A: The value was 1.18.

Q: What about the “Log2 Fold Change” value ([1]; gene Trp53inp2) of the same compound?
A: Its value is 0.6286.

Q: What about the “Log2 Fold Change” value ([1]; gene Zfp503) of the same compound?
A: The value was 0.4797.

Q: And the “soft agar growth driven by TAZ S89A” value [2]?
A: Its value is “inhibited soft agar growth”.
